Results taken from patent US20130296363A1, “QUINOLINE AND ISOQUINOLINE DERIVATIVES FOR USE AS JAK MODULATORS” (AMBIT BIOSCIENCES CORPORATION, priority 2010, published 2013).
pIC50, pKd: −log10 of the molar value.

Tests used:
[1] = target: T1, TYK2 (Homo sapiens, UniProt P29597); experiment: Competition binding assay to determine Kd against JAK kinases: TYK2
T1 construct: made in house
Protocol: (§1) Competition binding assays used herein were developed, validated and performed as described in Fabian et al., Nature Biotechnology 2005, 23, 329-336. Kinases were produced as fusions to T7 phage (See, Fabian et al. or WO04/015142) or alternatively, the kinases were expressed in HEK-293 cells and subsequently tagged with DNA for PCR detection (See, WO08/005,310). For the binding assays, streptavidin-coated magnetic beads were treated with biotinylated affinity ligands for 30 min at rt to generate affinity resins. The liganded beads were blocked with excess biotin and washed with blocking buffer (SeaBlock (Pierce), 1% BSA, 0.05% Tween 20, 1 mM DTT) to remove unbound ligand and to reduce non-specific binding. Binding reactions were assembled by combining kinase, liganded affinity beads, and test compounds in 1× binding buffer (20% SeaBlock, 0.17×PBS, 0.05% Tween 20, 6 mM DTT). Test compounds were prepared as 100× stocks in DMSO and rapidly diluted into the aqueous environment. DMSO was added to control assays lacking a test compound. Primary screen interactions were performed in polypropylene 384-well plates in a final volume of 34 μL, while Kd determinations were performed in polystyrene 96-well plates in a final volume of 135 μL. The assay plates were incubated at room temperature with shaking for 1 hour, long enough for binding reactions to reach equilibrium, and the affinity beads were washed extensively with wash buffer (1×PBS, 0.05% Tween 20) to remove unbound protein. The beads were then resuspended in elution buffer (1×PBS, 0.05% Tween 20, 2 μM non-biotinylated affinity ligand) and incubated at room temperature with shaking for 30 min. The kinase concentration in the eluates was measured by quantitative PCR. Each kinase was tested individually against each compound. Kds were determined using eleven serial threefold dilutions. A selectivity score, which is a quantitative measure of selectivity of a compound against a panel of enzymes, may be calculated for a compound by dividing the number of enzymes for which a compound meets a set criteria, (for example, a binding constant of 100 nM or less), by the total number of enzymes tested.

[2] = test system: GM-CSFR/JAK2/STAT5 pathway in CSTF-1 cells; experiment: CSTF-1 cell-based reporter assay (beta-lactamase reporter, GM-CSF stimulated); settings: Homo sapiens, GM-CSF at 2 ng/mL, 4 hours, read-out: Cell Assay: CS TF-1 reporter assay IC50
Protocol: CSTF-1 cells are derived from the human erythroleukemia cell line that is growth dependent on GM-CSF and has an intact GM-CSFR/JAK2/STAT5 pathway. The cell line contains stably integrated beta-lactamase reporter gene under the control of the […] (irf 1) response element recognized by the activated transcription factor STAT5. csTF-1 cells (Invitrogen K1219) were washed with assay media (97% OPTIMEM/0.5% dialyzed FBS/0.1 mM NEAA/1 mM Na pyr/P/S) and seeded in the same media at 5×10^5 cell/mL in T150 flask. After 16 hour incubation, cells were seeded at 2×10^5 cell/well in 50 μl volume, into Costar, clear bottom, 96-well assay plates. Serial dilutions of compounds were added to the plates with final DMSO concentration at 0.5% and GM-CSF at 2 ng/mL and the plates were then incubated at 30° C. and 5% CO2 for 4 hours. The plates were brought to room temperature before adding Substrate Mixture according to manufacturer's protocol (Invitrogen, Catalog #K1085). The assay plates containing the substrate mixture were incubated in the dark at room temperature for 2 hours. Blue and green fluorescence was measured with excitation at 409 nm and emission at 460 nm (for blue) and excitation at 409 nm and emission at 530 nm (for green) using Spectra Max Gemini EM.

[3] = target: T2, JAK3 (Homo sapiens, UniProt P52333); experiment: Competition binding assay to determine Kd against JAK kinases: JAK3
T2 construct: made in house
T2 sequence (P52333 1-1124): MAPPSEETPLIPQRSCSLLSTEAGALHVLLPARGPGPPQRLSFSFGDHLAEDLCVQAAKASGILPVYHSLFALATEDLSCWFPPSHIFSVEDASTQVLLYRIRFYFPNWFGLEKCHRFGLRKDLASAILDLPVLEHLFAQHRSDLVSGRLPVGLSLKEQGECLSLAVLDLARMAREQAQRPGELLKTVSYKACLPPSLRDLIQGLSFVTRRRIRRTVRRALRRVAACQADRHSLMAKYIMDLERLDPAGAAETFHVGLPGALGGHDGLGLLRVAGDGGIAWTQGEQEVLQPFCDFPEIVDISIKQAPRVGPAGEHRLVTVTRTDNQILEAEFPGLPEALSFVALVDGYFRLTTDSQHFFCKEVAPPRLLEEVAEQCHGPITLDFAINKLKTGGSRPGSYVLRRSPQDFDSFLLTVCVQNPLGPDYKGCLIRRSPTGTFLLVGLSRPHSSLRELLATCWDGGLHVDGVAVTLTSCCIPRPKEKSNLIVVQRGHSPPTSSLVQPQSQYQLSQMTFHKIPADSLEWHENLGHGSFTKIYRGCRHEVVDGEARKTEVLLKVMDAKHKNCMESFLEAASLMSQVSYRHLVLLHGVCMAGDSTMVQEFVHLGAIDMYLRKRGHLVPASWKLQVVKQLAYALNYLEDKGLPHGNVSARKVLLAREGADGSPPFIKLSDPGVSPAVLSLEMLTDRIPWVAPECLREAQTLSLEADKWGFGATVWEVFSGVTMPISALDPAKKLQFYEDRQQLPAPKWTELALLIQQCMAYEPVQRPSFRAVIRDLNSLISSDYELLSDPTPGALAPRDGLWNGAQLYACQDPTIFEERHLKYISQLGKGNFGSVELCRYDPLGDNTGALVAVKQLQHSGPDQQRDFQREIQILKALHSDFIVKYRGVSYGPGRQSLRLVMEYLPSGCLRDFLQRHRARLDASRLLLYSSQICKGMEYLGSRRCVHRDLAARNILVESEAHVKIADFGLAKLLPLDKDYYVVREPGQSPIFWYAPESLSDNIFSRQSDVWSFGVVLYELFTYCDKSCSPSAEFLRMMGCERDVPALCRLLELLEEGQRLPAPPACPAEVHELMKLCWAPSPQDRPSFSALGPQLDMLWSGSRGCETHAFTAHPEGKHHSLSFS
Protocol: as §1

[4] = target: T3, JAK2 (Homo sapiens, UniProt O60674); experiment: Competition binding assay to determine Kd against JAK kinases: JAK2
T3 construct: made in house
T3 sequence (O60674 whole entry): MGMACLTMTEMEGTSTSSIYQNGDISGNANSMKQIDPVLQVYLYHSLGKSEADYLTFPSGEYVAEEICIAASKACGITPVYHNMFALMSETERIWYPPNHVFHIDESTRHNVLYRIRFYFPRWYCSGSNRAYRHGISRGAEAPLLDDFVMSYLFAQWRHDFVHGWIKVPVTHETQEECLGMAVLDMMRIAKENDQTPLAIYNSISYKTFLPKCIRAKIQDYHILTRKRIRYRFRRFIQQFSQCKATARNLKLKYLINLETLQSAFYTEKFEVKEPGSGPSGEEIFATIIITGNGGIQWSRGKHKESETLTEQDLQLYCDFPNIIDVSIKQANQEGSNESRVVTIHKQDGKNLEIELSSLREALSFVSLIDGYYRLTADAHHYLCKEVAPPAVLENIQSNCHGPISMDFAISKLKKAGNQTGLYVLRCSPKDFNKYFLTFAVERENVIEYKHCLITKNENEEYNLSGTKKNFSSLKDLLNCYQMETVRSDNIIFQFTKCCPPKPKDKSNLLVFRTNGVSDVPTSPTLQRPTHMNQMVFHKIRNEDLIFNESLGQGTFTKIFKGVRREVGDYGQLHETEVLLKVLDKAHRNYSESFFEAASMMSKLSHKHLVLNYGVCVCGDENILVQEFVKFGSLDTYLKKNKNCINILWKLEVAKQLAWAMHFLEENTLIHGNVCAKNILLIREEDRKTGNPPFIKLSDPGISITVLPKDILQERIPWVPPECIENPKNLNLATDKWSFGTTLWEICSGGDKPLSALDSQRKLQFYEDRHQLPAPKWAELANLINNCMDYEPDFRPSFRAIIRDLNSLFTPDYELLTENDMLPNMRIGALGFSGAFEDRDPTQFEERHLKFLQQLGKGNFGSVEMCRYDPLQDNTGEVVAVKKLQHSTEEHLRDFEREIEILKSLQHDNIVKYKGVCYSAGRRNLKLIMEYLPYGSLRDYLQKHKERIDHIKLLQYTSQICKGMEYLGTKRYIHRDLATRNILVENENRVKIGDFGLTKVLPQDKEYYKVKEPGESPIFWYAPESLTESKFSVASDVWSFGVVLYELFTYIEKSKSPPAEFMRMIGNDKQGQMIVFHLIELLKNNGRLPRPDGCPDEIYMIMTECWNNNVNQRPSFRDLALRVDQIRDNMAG
Protocol: as §1

[5] = test system: panel of distinct kinases excluding mutant variants, typically 359 or 386 kinases; experiment: Kinase selectivity score S10 from competition binding panel; settings: compound at 10 μM; fraction of kinases with inhibition of 90% or greater
Protocol: as §1

T1 sequence (P29597 whole entry): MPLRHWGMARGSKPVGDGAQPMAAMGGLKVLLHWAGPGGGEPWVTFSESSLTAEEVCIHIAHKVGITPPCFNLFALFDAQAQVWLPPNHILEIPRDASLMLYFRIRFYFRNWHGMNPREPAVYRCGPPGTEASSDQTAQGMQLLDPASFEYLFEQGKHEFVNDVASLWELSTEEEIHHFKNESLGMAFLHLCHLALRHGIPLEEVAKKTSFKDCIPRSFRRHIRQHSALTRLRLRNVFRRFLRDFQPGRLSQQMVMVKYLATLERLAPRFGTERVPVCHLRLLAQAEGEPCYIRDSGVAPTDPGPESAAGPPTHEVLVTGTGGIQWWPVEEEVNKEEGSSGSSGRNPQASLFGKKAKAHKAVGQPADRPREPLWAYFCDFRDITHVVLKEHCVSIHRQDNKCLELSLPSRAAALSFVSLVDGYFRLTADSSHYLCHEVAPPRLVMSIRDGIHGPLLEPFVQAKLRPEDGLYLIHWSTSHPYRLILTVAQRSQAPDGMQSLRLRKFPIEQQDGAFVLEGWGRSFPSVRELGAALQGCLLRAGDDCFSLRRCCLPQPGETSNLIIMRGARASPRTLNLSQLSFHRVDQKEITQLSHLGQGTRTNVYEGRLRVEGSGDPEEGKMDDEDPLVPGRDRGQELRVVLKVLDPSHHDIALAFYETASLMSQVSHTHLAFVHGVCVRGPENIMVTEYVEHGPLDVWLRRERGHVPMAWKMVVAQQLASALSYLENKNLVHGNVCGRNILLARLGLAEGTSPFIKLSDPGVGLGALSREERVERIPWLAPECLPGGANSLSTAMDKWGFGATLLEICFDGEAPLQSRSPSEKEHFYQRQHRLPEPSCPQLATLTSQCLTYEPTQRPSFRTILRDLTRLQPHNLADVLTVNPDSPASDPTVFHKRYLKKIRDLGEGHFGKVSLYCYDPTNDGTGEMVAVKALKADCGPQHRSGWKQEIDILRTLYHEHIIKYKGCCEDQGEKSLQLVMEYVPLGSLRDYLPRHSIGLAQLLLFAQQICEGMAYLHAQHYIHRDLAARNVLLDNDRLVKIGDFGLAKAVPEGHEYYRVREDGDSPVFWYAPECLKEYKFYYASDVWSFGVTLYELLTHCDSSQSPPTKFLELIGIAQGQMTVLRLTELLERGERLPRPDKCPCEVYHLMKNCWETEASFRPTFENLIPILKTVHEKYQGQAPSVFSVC

## Cc1cnc(Nc2nc(S(=O)(=O)c3ccc(F)cc3)cc3ccccc23)s1 [Example 16, N-(3-(4-fluorophenylsulfonyl)isoquinolin-1-yl)-5-methylthiazol-2-amine]
[1]
  pKd: ≥ 8.00
[2]
  pIC50: ≥ 7.00
[3]
  pKd: ≥ 8.00
[4]
  pKd: ≥ 8.30
[5]
  S-Score: S(10) at 10 μM: B (0.3 < B ≦ 0.4)
